Entries after “also recorded” stand apart in the source; their conditions may differ.
How the values were obtained:
E. coli = test: Radial diffusion assay; format: cell-based, Escherichia coli; details: diameter of growth inhibition zone after 12 h; compared with melittin; repeated three times
Method: (§1) The bacterial strains E. coli (KACC 13821, ATCC 11775) and Staphylococcus aureus (KACC 10768, ATCC 25923), and the yeast strain Candida albicans (KCTC 7121, ATCC 14053) were purchased from the Korean Agricultural Culture Collection (KACC) and Korean Collection for Type Cultures (KCTC). Both bacteria and the yeast were cultivated overnight in tryptic soy broth (TSB; Difco, USA) at 200 rpm in a 37°C shaking incubator to the stationary phase. Bacteria were cultivated for 3 h in fresh TSB medium under the same condition to the log phase. The strains were stored with 15% glycerol at −70°C until use.
(§2) The radial diffusion assay was performed to test the antimicrobial activities of peptides, as described previously with slight modifications. In brief, bacteria and yeast strains were grown to the mid-logarithmic phase in TSB at 37°C and then washed twice with 10 mM Tris-HCl (containing 5 mM glucose, pH 7.4). A total of 4 × 10^6 CFU was added to 10 mL of an underlay agarose gel [0.03% (w/v) TSB, 1% (w/v) agarose (Sigma, USA), and 0.02% (v/v) Tween 20 (Sigma, USA) in 10 mM Tris-HCl]. The underlay gel was poured into a 100-mm INTEGRID^TM Petri dish. After agarose solidification, 3-mm-diameter wells were punched and 5 μL of each peptide solution was added to each well. Buffer alone was used as a negative control. Plates were incubated at 37°C for 3 h to allow for diffusion of the peptides. The underlay gel was then covered with 10 mL of nutrient-rich agar overlay (6% TSB and 1% agarose in 10 mM Tris-HCl). […] This experiment was repeated at least 3 times and the same results were obtained.

E. coli (ATCC 11775) = test: Broth microdilution assay (MIC); format: cell-based, Escherichia coli; details: Mueller-Hinton Broth, 2 × 10^4 CFU/mL, 18 h at 37°C, visible turbidity, complete growth inhibition
Method: as §1
(§3) In addition, antimicrobial activities of the peptides were also tested by broth microdilution assays against E. coli, S. aureus, and C. albicans. Briefly, microbes were grown overnight in Mueller-Hinton Broth (MHB) to the onset of the stationary phase with shaking at 200 rpm. The cultures were diluted in fresh MHB to a final concentration of 2 × 10^4 CFU/mL. A stock solution of each peptide was prepared to a concentration of 640 μg/mL in 0.01% acetic acid, and was then serially diluted two-fold to reach a concentration of 10 μg/mL. After 90-μL aliquots of the microbial suspension were dispensed into each well of a 96-well polypropylene microtiter plate, 10 μL of the peptide solution was added. The antimicrobial activities of the peptides were assessed by measuring the visible turbidity in each well of the plate after 18 h of incubation at 37°C. Minimum inhibitory concentrations (MICs) are expressed as a specific value that caused complete growth inhibition.

C. albicans = test: Radial diffusion assay; format: cell-based, Candida albicans; details: diameter of growth inhibition zone after 12 h, repeated three times
Method: as §1, §2

C. albicans (ATCC 14053) = format: cell-based, Candida albicans; details: Mueller-Hinton Broth, 2 × 10^4 CFU/mL, 18 h at 37°C, visible turbidity, complete growth inhibition
Method: as §1, §3

[1] = system: Gram-negative bacteria, Gram-positive bacteria, and yeast; test: Radial diffusion assay, statement over all three microbes; format: cell-based; details: increased in a dose-dependent manner, cleared zone after 12 h at 37°C
Method: as §1, §2

S. aureus (ATCC 25923) = test: Broth microdilution assay (MIC); format: cell-based, Staphylococcus aureus; details: Mueller-Hinton Broth, 2 × 10^4 CFU/mL, 18 h at 37°C, visible turbidity, complete growth inhibition
Method: as §1, §3

rat erythrocytes = test: Hemolytic assay; format: cell-based; details: 100 μg/mL, compared to melittin, 30 min at 37°C, A540
Method: This experiment was approved by the Institutional Animal Care and Use Committee (IACUC) of the National Academy of Agricultural Sciences (approval number: NAAS-1114). The hemolytic activity of the peptides was determined by monitoring the release of hemoglobin from rat erythrocytes at 540 nm. For the hemolytic assay, 20 μL of each peptide solution at a predetermined concentration was added to 180 μL of a 2.5% (v/v) suspension of rat erythrocytes in phosphate-buffered saline (PBS). Melittin (Sigma, USA), a hemolytic and α-helical peptide isolated from bee venom, was used as the positive control. This mixture was incubated for 30 min at 37°C, and 600 μL of PBS was then added to each tube. After 3 min of centrifugation at 10,000 ×g, the supernatant was […], and the absorbance was measured at 540 nm. Evaluations were made from the results of at least three independent experiments, each carried out in triplicate.

S. aureus = test: Radial diffusion assay; format: cell-based, Staphylococcus aureus; details: diameter of growth inhibition zone after 12 h; compared with melittin; repeated three times
Method: as §1, §2

ALQICTRNMIDDRLPYVADNVRPGTFIKQQRKQKQQRHHTSGTRKRMAKG [ISGCock_Contig04_0915, synthetic peptide, AMPA stretch of a predicted novel AMP from a P. americana transcript]
Antimicrobial activity in E. coli (radial diffusion assay) (E. coli): stronger antimicrobial activity than melittin | Minimum Inhibitory Concentration (MIC) (E. coli (ATCC 11775)): 64 µg/mL | Antimicrobial activity against C. albicans (radial diffusion assay) (C. albicans): strong antimicrobial activity | Minimum Inhibitory Concentration (MIC) (C. albicans (ATCC 14053)): >64 µg/mL | Antimicrobial activity in radial diffusion assay [1]: antimicrobial activity | Minimum Inhibitory Concentration (MIC) (S. aureus (ATCC 25923)): >64 µg/mL

ANLLRHKVYGYCVLGPKGSSLGGIHGTWHDHHCSLIQRNPSTSTKGN [ISGCock_Contig13_3006, synthetic peptide, AMPA stretch of a predicted novel AMP from a P. americana transcript]
Minimum Inhibitory Concentration (MIC) (E. coli (ATCC 11775)): 64 µg/mL | Minimum Inhibitory Concentration (MIC) (C. albicans (ATCC 14053)): 64 µg/mL | Antimicrobial activity in radial diffusion assay [1]: antimicrobial activity | Minimum Inhibitory Concentration (MIC) (S. aureus (ATCC 25923)): >64 µg/mL

CNYISFFRKCKNSQSTMYGCHRMNKCVFSSY [ISGCock_Contig07_3736–1, synthetic peptide, first AMPA stretch of a predicted novel AMP from a P. americana transcript]
Minimum Inhibitory Concentration (MIC) (E. coli (ATCC 11775)): >64 µg/mL | Minimum Inhibitory Concentration (MIC) (C. albicans (ATCC 14053)): >64 µg/mL | Antimicrobial activity in radial diffusion assay [1]: antimicrobial activity | Minimum Inhibitory Concentration (MIC) (S. aureus (ATCC 25923)): >64 µg/mL

HLYPCKLNLKLGKVPFHFLNLNHKGKSIMVNQQTCLYYIICQTR [ISGCock_Contig13_4610–1, synthetic peptide, first AMPA stretch of a predicted novel AMP from a P. americana transcript]
Hemolytic activity (rat erythrocytes): relatively low compared to that of melittin | Antimicrobial activity in E. coli (radial diffusion assay) (E. coli): stronger antimicrobial activity than melittin | Minimum Inhibitory Concentration (MIC) (E. coli (ATCC 11775)): 64 µg/mL | Antimicrobial activity in S. aureus (radial diffusion assay) (S. aureus): greater than that of melittin | Antimicrobial activity against C. albicans (radial diffusion assay) (C. albicans): strong antimicrobial activity | Minimum Inhibitory Concentration (MIC) (C. albicans (ATCC 14053)): >64 µg/mL | Antimicrobial activity in radial diffusion assay [1]: antimicrobial activity | Minimum Inhibitory Concentration (MIC) (S. aureus (ATCC 25923)): >64 µg/mL

ISHNHLTAASITHVKNRGKYIYMHLKFRKTNVLI [ISGCock_Contig16_2060, synthetic peptide, AMPA stretch of a predicted novel AMP from a P. americana transcript]
Minimum Inhibitory Concentration (MIC) (E. coli (ATCC 11775)): 16 µg/mL | Minimum Inhibitory Concentration (MIC) (C. albicans (ATCC 14053)): 16 µg/mL | Antimicrobial activity in radial diffusion assay [1]: antimicrobial activity | Minimum Inhibitory Concentration (MIC) (S. aureus (ATCC 25923)): 16 µg/mL

KRMKLNAKKLSFCDHLNSYLNLSPTLFIHNSSKQWSHWLWHNGIRI [ISGCock_Contig15_1337–1, synthetic peptide, first AMPA stretch of a predicted novel AMP from a P. americana transcript]
Hemolytic activity (rat erythrocytes): relatively low compared to that of melittin | Minimum Inhibitory Concentration (MIC) (E. coli (ATCC 11775)): >64 µg/mL | Antimicrobial activity in S. aureus (radial diffusion assay) (S. aureus): greater than that of melittin | Antimicrobial activity against C. albicans (radial diffusion assay) (C. albicans): strong antimicrobial activity | Antimicrobial activity against C. albicans (radial diffusion assay) (C. albicans; listed as Contig15_1337–1): highest antifungal activity of the tested peptides | Minimum Inhibitory Concentration (MIC) (C. albicans (ATCC 14053)): 16 µg/mL | Antimicrobial activity in radial diffusion assay [1]: antimicrobial activity | Minimum Inhibitory Concentration (MIC) (S. aureus (ATCC 25923)): >64 µg/mL

KRMKLNAKKLSFCDHLNSYLNLSPTLFIHNSSKQWSHWLWHNGIRI [ISGCock_Contig15_1337–2, synthetic peptide, second AMPA stretch of a predicted novel AMP from a P. americana transcript]
Hemolytic activity (rat erythrocytes): relatively low compared to that of melittin | Antimicrobial activity in E. coli (radial diffusion assay) (E. coli): stronger antimicrobial activity than melittin; also recorded: highest antimicrobial activity of the tested peptides | Minimum Inhibitory Concentration (MIC) (E. coli (ATCC 11775)): >64 µg/mL | Antimicrobial activity in S. aureus (radial diffusion assay) (S. aureus): greater than that of melittin | Antimicrobial activity against C. albicans (radial diffusion assay) (C. albicans): strong antimicrobial activity | Minimum Inhibitory Concentration (MIC) (C. albicans (ATCC 14053)): 64 µg/mL | Antimicrobial activity in radial diffusion assay [1]: antimicrobial activity | Minimum Inhibitory Concentration (MIC) (S. aureus (ATCC 25923)): >64 µg/mL

LMLCKGFLRHSYKSIHERGTKRGKLCRISRLALSSLP [ISGCock_Contig10_4736–2, synthetic peptide, second AMPA stretch of a predicted novel AMP from a P. americana transcript]
Minimum Inhibitory Concentration (MIC) (E. coli (ATCC 11775)): 16 µg/mL | Antimicrobial activity in S. aureus (radial diffusion assay) (S. aureus): greater than that of melittin | Antimicrobial activity against C. albicans (radial diffusion assay) (C. albicans): strong antimicrobial activity | Minimum Inhibitory Concentration (MIC) (C. albicans (ATCC 14053)): 32 µg/mL | Antimicrobial activity in radial diffusion assay [1]: antimicrobial activity | Minimum Inhibitory Concentration (MIC) (S. aureus (ATCC 25923)): >64 µg/mL

MKTFLRLYRSLINKVLHV [ISGCock_Contig05_0593, synthetic peptide, AMPA stretch of a predicted novel AMP from a P. americana transcript]
Minimum Inhibitory Concentration (MIC) (E. coli (ATCC 11775)): 4 µg/mL | Antimicrobial activity in S. aureus (radial diffusion assay) (S. aureus): greater than that of melittin; also recorded: highest antibacterial effect | Antimicrobial activity against C. albicans (radial diffusion assay) (C. albicans): strong antimicrobial activity | Minimum Inhibitory Concentration (MIC) (C. albicans (ATCC 14053)): 4 µg/mL | Antimicrobial activity in radial diffusion assay [1]: antimicrobial activity | Minimum Inhibitory Concentration (MIC) (S. aureus (ATCC 25923)): 16 µg/mL

RKKVWFIFHVCPKLKQRILSDTHAKNKCRLSPLLIKSTKIKNET [ISGCock_Contig16_4974, synthetic peptide, AMPA stretch of a predicted novel AMP from a P. americana transcript]
Minimum Inhibitory Concentration (MIC) (E. coli (ATCC 11775)): 16 µg/mL | Minimum Inhibitory Concentration (MIC) (C. albicans (ATCC 14053)): 16 µg/mL | Antimicrobial activity in radial diffusion assay [1]: antimicrobial activity | Minimum Inhibitory Concentration (MIC) (S. aureus (ATCC 25923)): 16 µg/mL

VVGRKHSILNCIPYLKKKKIMRLVESESIG [ISGCock_Contig12_4176, synthetic peptide, AMPA stretch of a predicted novel AMP from a P. americana transcript]
Hemolytic activity (rat erythrocytes): relatively low compared to that of melittin | Minimum Inhibitory Concentration (MIC) (E. coli (ATCC 11775)): 8 µg/mL | Antimicrobial activity in S. aureus (radial diffusion assay) (S. aureus): greater than that of melittin | Antimicrobial activity against C. albicans (radial diffusion assay) (C. albicans): strong antimicrobial activity | Minimum Inhibitory Concentration (MIC) (C. albicans (ATCC 14053)): 8 µg/mL | Antimicrobial activity in radial diffusion assay [1]: antimicrobial activity | Minimum Inhibitory Concentration (MIC) (S. aureus (ATCC 25923)): >64 µg/mL

Source: PMC4864078, “De Novo Transcriptome Analysis and Detection of Antimicrobial Peptides of the American Cockroach Periplaneta americana (Linnaeus)” (PLoS ONE, 2016)
